Assay results as given in publication PMC2917805 (Journal of medicinal chemistry, 2010).

Legend:
[1] = test system: HL-60 human acute leukemia cells; test: Cell cycle analysis, subG1 accumulation; type: cell-based
iNOS protein expression = test: Western blot of iNOS expression in LPS-stimulated RAW 264.7 cells; type: cell-based; conditions: 34 μM; for effect on iNOS protein expression: LPS-stimulated RAW 264.7 cells; for relative iNOS protein expression: relative to LPS-treated control, LPS 1 μg/mL, 18 h
[2] = Stability in RPMI 1640 cell culture medium; type: physicochemical
[3] = test system: quinone reductase 1 (QR1); test: QR activity in cell culture; type: cell-based, murine; conditions: Hepa 1c1c7 cells
[4] = DPPH free-radical scavenging
[5] = cell culture medium, 37 °C, 24 h

Row | SMILES | effect on iNOS protein expression (iNOS protein expression) | QR1 CD (concentration to double the expression of QR1) [3] [µM] | relative iNOS protein expression (iNOS protein expression) | other results
1 | Oc1ccc(/C=C/c2cc(O)cc(O)c2)cc1 [Resveratrol, 3,5,4′-trihydroxystilbene, reference compound] | moderately suppressed the expression of iNOS | – | – | accumulation of HL-60 cells in subG1 [1]: active; remaining at 0 h ([2]; RPMI 1640 cell culture medium): 100 ± 0.3%; remaining at 24 h ([2]; RPMI 1640 cell culture medium): 46.8 ± 8.7%; degradation during 24 h [2, 5]: ~ 50%
2 | O=S(=O)([O-])Oc1ccc(/C=C/c2cc(OS(=O)(=O)[O-])cc(OS(=O)(=O)[O-])c2)cc1.[K+].[K+].[K+] [compound 2, Resveratrol Tripotassium 3,5,4′-Sulfate] | – | > 11.7 | – | DPPH free radical scavenging [4]: inactive
3 | O=S(=O)([O-])Oc1ccc(/C=C/c2cc(O)cc(OS(=O)(=O)[O-])c2)cc1.[K+].[K+] [compound 3, Resveratrol Dipotassium 3,4′-Sulfate] | – | > 10.1 | – | –
4 | O=S(=O)([O-])Oc1cc(/C=C/c2ccc(O)cc2)cc(OS(=O)(=O)[O-])c1.[K+].[K+] [compound 4, Resveratrol Tripotassium 3,5-Sulfate] | – | > 10.1 | – | –
5 | O=S(=O)([O-])Oc1cc(O)cc(/C=C/c2ccc(O)cc2)c1.[K+] [compound 5, Resveratrol Potassium 3-Sulfate] | moderately suppressed the expression of iNOS | – | 0.54 | –
6 | O=S(=O)([O-])Oc1ccc(/C=C/c2cc(O)cc(O)c2)cc1.[K+] [compound 7, Resveratrol Potassium 4′-Sulfate] | moderately suppressed the expression of iNOS | > 6.9 | 0.67 | remaining at 0 h ([2]; buffer): 100 ± 2.2%; remaining at 12 h ([2]; buffer): 95.1 ± 3%; remaining at 24 h ([2]; buffer): 98.8 ± 3.1%; stability [2, 5]: stable for 24 h
